According to patent publication US7034049B1, “3(5)-amino-pyrazole derivatives, process for their preparation and their use as antitumor agents” (Pharmacia Italia S.p.A., priority 1999, dated 2006):

Row | melting point | SMILES
1 | 167 to 171 °C | CC(=O)Nc1cc(C2CC2)n[nH]1 [Compound 88, N-(3-cyclopropyl-1H-pyrazol-5-yl)acetamide]
2 | 238 to 239 °C | O=C(Nc1cc(C2CC2)n[nH]1)c1cc2ccccc2s1 [Compound 91, N-(3-cyclopropyl-1H-pyrazol-5-yl)-1-benzothiophene-2-carboxamide]
3 | 152 to 160 °C | O=C(CCc1ccccc1)Nc1cc(C2CC2)n[nH]1 [Compound 93, N-(3-cyclopropyl-1H-pyrazol-5-yl)-3-phenylpropanamide]
4 | 173 to 174 °C | COC(=O)c1ccc(C(=O)Nc2cc(C3CC3)n[nH]2)cc1 [Compound 94, Methyl 4-{[(3-cyclopropyl-1H-pyrazol-5-yl)amino]carbonyl}benzoate]
5 | 268 to 269 °C | O=C(Nc1cc(C2CC2)n[nH]1)c1cc2ccccc2[nH]1 [Compound 102, N-(3-cyclopropyl-1H-pyrazol-5-yl)-1H-indole-2-carboxamide]
6 | 220 to 221 °C | O=C(Nc1cc(C2CC2)n[nH]1)c1ccc[nH]1 [Compound 248, N-(3-cyclopropyl-1H-pyrazol-5-yl)-1H-pyrrole-2-carboxamide]
